Test results published in patent US8901118B2, “Compounds and methods for kinase modulation, and indications therefor” (Plexxikon Inc., priority 2010, dated 2014).

Tests used:
BCR-NTRK3 BaF3 cells = biological target: T1, BCR-NTRK3 BaF3 cells (Homo sapiens, UniProt Q16288); assay: BaF3 BCR-NTRK3 cell proliferation assay (ATPlite); assay type: cell-based; details: read-out: Inhibition of Cell Proliferation IC50, BCR/BaF3 TrkC
T1 construct: fused on or other part: P11274 (Breakpoint cluster region protein)
T1 sequence (Q16288 whole entry, the tested form may be a part): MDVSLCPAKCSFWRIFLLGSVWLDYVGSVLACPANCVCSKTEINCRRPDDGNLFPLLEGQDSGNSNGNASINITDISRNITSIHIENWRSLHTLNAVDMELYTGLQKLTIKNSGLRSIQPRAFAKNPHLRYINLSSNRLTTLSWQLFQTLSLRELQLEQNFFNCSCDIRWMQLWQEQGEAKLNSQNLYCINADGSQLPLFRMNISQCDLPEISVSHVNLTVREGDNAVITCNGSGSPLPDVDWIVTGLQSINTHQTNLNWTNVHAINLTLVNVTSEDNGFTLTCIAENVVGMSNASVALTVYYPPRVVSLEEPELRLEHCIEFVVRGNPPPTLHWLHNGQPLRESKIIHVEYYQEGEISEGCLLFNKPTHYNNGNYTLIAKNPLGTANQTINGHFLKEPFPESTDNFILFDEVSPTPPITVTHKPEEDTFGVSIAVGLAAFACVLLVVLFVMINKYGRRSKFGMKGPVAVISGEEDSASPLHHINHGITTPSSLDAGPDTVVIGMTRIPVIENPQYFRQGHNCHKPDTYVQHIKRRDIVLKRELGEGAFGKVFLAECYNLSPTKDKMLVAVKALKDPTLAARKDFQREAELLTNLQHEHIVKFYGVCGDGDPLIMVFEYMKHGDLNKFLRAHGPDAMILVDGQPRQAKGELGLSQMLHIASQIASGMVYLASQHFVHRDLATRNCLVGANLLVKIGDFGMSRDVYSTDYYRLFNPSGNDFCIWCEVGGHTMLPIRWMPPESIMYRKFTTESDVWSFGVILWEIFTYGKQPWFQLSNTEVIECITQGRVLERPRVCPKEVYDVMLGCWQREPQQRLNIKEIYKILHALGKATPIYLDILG
Experimental: Compounds are assessed in a variety of cell based assays. For example BaF3 cells engineered with any of BCR-FMS, BCR-KIT, BCR-FLT3, BCR-NTRK1, BCR-NTRK2, and BCR-NTRK3, are used in cell proliferation assays to assess inhibitory activity of Fms, Kit, Flt-3, TrkA, TrkB, and TrkC, respectively. An MV-4-11 (leukemia) cell proliferation assay is used to assess inhibitory activity in Flt-3, and SKNSH (human neuroblastoma) cell proliferation assay is used to assess efficacy of Fms/Trk inhibitors. Additional cells may be assayed similarly to assess the efficacy of Fms/Trk inhibitors, such as MiaPaCa (human pancreatic cancer) and Capan-1 (human pancreatic carcinoma) cells. Reagent and assay conditions are as follows: • BaF3 cells: • Maintained in RPMI containing 10% FBS, 1% PenStrep, 1% NEAA, and 1% L-Glutamine, supplemented with 1 mg/mL G418 and 5% WEHI-CM (or recombinant murine IL-3). • Confluent cells are split 1:50 to 1:100 every 3-4 days. • MV-4-11 cells: • Maintained in Iscove's Modified Dulbecco's Medium containing 10% FBS. • Confluent cells are split 1:4 every 3-4 days. • SKNSH cells: RPMI containing 10% FBS. On day 1, cells are counted, then centrifuged in a conical tube for 5 minutes at 1000 rpm. The supernatant is removed and cells are re-suspended as follows: • BaF3: resuspend in growth media +1 mg/mL G418 (without WEHFIL-3) to 2×10^5 cells/mL. • MV-4-11: resuspend in growth media to 5×10^5 cells/mL. • SKNSH: resuspend in growth media to 2×10^4 cells/mL. The cells are plated (50 μL, 150 μL for SKNSH cells) in each well of a 96-well dish (Corning 3610) and incubated at 37° C. in 5% CO2 overnight, cells plated to a final concentration of cells as follows: • BaF3: 10,000 cells per well. • MV-4-11: 25,000 cells per well. • SKNSH: 3,000 cells per well. On day 2, compound at a maximum concentration of 5 mM is serially diluted 1:3 for a total of 8 point titration with DMSO as a control. A 1 μL aliquot of each dilution point is added to 249 μL growth media and 50 μL is added to a well containing cells, providing 10 μM compound for the maximum concentration point. The cells are incubated for 3 days at 37° C. in 5% CO2. For SKNSH cells, a 0.75 μL aliquot of appropriate dilution in DMSO is added to 150 μL of cells. On day 5, ATPlite 1 step Luminescence Assay System (Perkin Elmer #6016739) is brought to room temperature along with the cell cultures. ATPlite is added to each well as follows: • BaF3: 25 μL per well. • MV-4-11: 40 μL per well. • SKNSH: 20 μL per well. The cells are incubated at room temperature for 10 minutes, then luminescence is read on Safire reader. The measured luminescence correlates directly with cell number, such that the reading as a function of compound concentration is used to determine the IC50 value.
It is understood that the results of these assays may vary as assay conditions are varied. Inhibition levels determined under the conditions described herein represent a relative activity for the compounds tested under the specific conditions employed. The cell based assays are likely to show variability due to the complexity of the system and the sensitivity thereof to any changes in the assay conditions. […] Results for compounds that are tested and show substantially no inhibition below the highest tested concentration are represented as “-” in the tables below. In some instances, the compounds were not tested in all of the assays, or assay results were not valid, as indicated by NA in the tables below.

CYP3A4(BFC) = CYP3A4(BFC) (Homo sapiens, UniProt P08684); assay: CYP3A4(BFC) inhibition; assay type: in vitro ADME; details: CYP3A4, substrate BFC; read-out: Cyp IC50 3A4(BFC)
Sequence of CYP3A4(BFC) (P08684 whole entry): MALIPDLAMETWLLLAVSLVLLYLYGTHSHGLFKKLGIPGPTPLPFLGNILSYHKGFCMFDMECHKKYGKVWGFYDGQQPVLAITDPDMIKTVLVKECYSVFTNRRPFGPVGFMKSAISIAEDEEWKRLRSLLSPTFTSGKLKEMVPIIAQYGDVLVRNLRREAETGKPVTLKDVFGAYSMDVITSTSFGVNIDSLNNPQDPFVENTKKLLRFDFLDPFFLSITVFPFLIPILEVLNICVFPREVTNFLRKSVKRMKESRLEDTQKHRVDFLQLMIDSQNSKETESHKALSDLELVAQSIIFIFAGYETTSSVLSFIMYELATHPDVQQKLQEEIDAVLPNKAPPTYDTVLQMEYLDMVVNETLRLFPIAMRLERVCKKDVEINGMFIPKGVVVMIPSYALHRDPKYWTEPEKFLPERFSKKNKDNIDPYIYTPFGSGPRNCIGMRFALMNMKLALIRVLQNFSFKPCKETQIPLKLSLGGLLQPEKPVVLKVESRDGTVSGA
Experimental: CYP (Cytochrome P450) enzymes are the major drug metabolizing enzymes present in the liver. The inhibition of CYP enzyme activity (IC50) for each of CYP1A2, CYP2C19, CYP2C9, CYP2D6, CYP3A4(BFC) and CYP3A4(BQ) is determined for compounds, where inhibition of metabolism of a known substrate leads to a decrease in the fluorescence of the metabolized product. The fluorescence of the product is monitored as a function of compound concentration. Compounds are dissolved in DMSO to a concentration of 100 mM. These are diluted 1 μL into 82 μL of acetonitrile. An 11 μL aliquot of this solution is then added to 204 μL of cofactor mix (1.3% NADPH Regeneration system Solution A, 1.04% NADPH Regeneration system Solution B from BD Biosciences, 5% acetonitrile and 0.05% DMSO). These are then serially diluted 1:1 (160 μL to 160 μL co-factor mix) for a total of 10 points. A 10 μL aliquot of this final mixture is dispensed into 384 well assay plates and incubated for 10 minutes at 37° C. […] Assay plates are incubated at 37° C. (CYP1A2-15 min; CYP2C9-45 min; CYP2C19, 2D6 and 3A4-30 min) and read in a Tecan Safire 2 plate reader (CYP1A2, 2C19 and 3A4 409 ex/460 em; CYP2C9 and 2D6 409 ex/530 em). The signal versus compound concentration is used to determine the IC50. The enzymes and substrates for this assay are obtained from BD Biosciences.

IC50 (BCR-NTRK3 BaF3 cells) | IC50 (CYP3A4(BFC)) | SMILES
< 0.01 µM | > 10 µM | CCC(CC)Nc1ncnc2[nH]cc(C(=O)c3ccc(Nc4ccc(OC)nc4)nc3F)c12 [Compound P-4077, [4-(1-ethylpropylamino)-7H-pyrrolo[2,3-d]pyrimidin-5-yl]-[2-fluoro-6-[(6-methoxy-3-pyridyl)amino]-3-pyridyl]methanone]
< 0.01 µM | > 10 µM | CCC(C)Nc1ncnc2[nH]cc(C(=O)c3ccc(Nc4ccc(OC)nc4)nc3F)c12 (centres unmarked) [Compound P-4078, [2-fluoro-6-[(6-methoxy-3-pyridyl)amino]-3-pyridyl]-[4-(sec-butylamino)-7H-pyrrolo[2,3-d]pyrimidin-5-yl]methanone]
< 0.01 µM | > 10 µM | COCCCNc1ncnc2[nH]cc(C(=O)c3ccc(Nc4ccc(OC)nc4)nc3F)c12 [Compound P-4079, [2-fluoro-6-[(6-methoxy-3-pyridyl)amino]-3-pyridyl]-[4-(3-methoxypropylamino)-7H-pyrrolo[2,3-d]pyrimidin-5-yl]methanone]
< 0.01 µM | > 10 µM | CCCCNc1ncnc2[nH]cc(C(=O)c3ccc(Nc4ccc(OC)nc4)nc3F)c12 [Compound P-4080, [4-(butylamino)-7H-pyrrolo[2,3-d]pyrimidin-5-yl]-[2-fluoro-6-[(6-methoxy-3-pyridyl)amino]-3-pyridyl]methanone]
< 0.01 µM | > 10 µM | CCNc1ncnc2[nH]cc(C(=O)c3ccc(Nc4ccc(OC)nc4)nc3F)c12 [Compound P-4081, [4-(ethylamino)-7H-pyrrolo[2,3-d]pyrimidin-5-yl]-[2-fluoro-6-[(6-methoxy-3-pyridyl)amino]-3-pyridyl]methanone]
< 0.01 µM | > 10 µM | CNc1ncnc2[nH]cc(C(=O)c3ccc(Nc4ccc(OC)nc4)nc3F)c12 [Compound P-4083, [2-fluoro-6-[(6-methoxy-3-pyridyl)amino]-3-pyridyl]-[4-(methylamino)-7H-pyrrolo[2,3-d]pyrimidin-5-yl]methanone]

The remaining lines, values behind:

SMILES | IC50 (BCR-NTRK3 BaF3 cells) | IC50 (CYP3A4(BFC))
COc1ccc(Nc2ccc(C(=O)c3c[nH]c4ncnc(N5CCCCC5)c34)c(F)n2)cn1 [Compound P-4069, [2-fluoro-6-[(6-methoxy-3-pyridyl)amino]-3-pyridyl]-[4-(1-piperidyl)-7H-pyrrolo[2,3-d]pyrimidin-5-yl]methanone] | > 1 µM | 5 to 10 µM
COc1ccc(Nc2ccc(C(=O)c3c[nH]c4ncnc(N5CCOCC5)c34)c(F)n2)cn1 [Compound P-4070, [2-fluoro-6-[(6-methoxy-3-pyridyl)amino]-3-pyridyl]-(4-morpholino-7H-pyrrolo[2,3-d]pyrimidin-5-yl)methanone] | > 1 µM | > 10 µM
COc1ccc(Nc2ccc(C(=O)c3c[nH]c4ncnc(NCc5ccc(C(F)(F)F)nc5)c34)c(F)n2)cn1 [Compound P-4071, [2-fluoro-6-[(6-methoxy-3-pyridyl)amino]-3-pyridyl]-[4-[[6-(trifluoromethyl)-3-pyridyl]methylamino]-7H-pyrrolo[2,3-d]pyrimidin-5-yl]methanone] | < 0.01 µM | > 10 µM
COc1ccc(Nc2ccc(C(=O)c3c[nH]c4ncnc(N[C@@H](C)c5ccc(F)cc5)c34)c(F)n2)cn1 [Compound P-4072, [2-fluoro-6-[(6-methoxy-3-pyridyl)amino]-3-pyridyl]-[4-[[(1S)-1-(4-fluorophenyl)ethyl]amino]-7H-pyrrolo[2,3-d]pyrimidin-5-yl]methanone] | < 0.01 µM | > 10 µM
COc1ccc(Nc2ccc(C(=O)c3c[nH]c4ncnc(NCC5CCCO5)c34)c(F)n2)cn1 (centres unmarked) [Compound P-4073, [2-fluoro-6-[(6-methoxy-3-pyridyl)amino]-3-pyridyl]-[4-(tetrahydrofuran-2-ylmethylamino)-7H-pyrrolo[2,3-d]pyrimidin-5-yl]methanone] | < 0.01 µM | > 10 µM
CCN1CCC(Nc2ncnc3[nH]cc(C(=O)c4ccc(Nc5ccc(OC)nc5)nc4F)c23)CC1 [Compound P-4074, [4-[(1-ethyl-4-piperidyl)amino]-7H-pyrrolo[2,3-d]pyrimidin-5-yl]-[2-fluoro-6-[(6-methoxy-3-pyridyl)amino]-3-pyridyl]methanone] | < 0.01 µM | > 10 µM
COc1ccc(Nc2ccc(C(=O)c3c[nH]c4ncnc(NC5CCCC5)c34)c(F)n2)cn1 [Compound P-4075, [4-(cyclopentylamino)-7H-pyrrolo[2,3-d]pyrimidin-5-yl]-[2-fluoro-6-[(6-methoxy-3-pyridyl)amino]-3-pyridyl]methanone] | < 0.01 µM | > 10 µM
COc1ccc(Nc2ccc(C(=O)c3c[nH]c4ncnc(NC5CCC5)c34)c(F)n2)cn1 [Compound P-4076, [4-(cyclobutylamino)-7H-pyrrolo[2,3-d]pyrimidin-5-yl]-[2-fluoro-6-[(6-methoxy-3-pyridyl)amino]-3-pyridyl]methanone] | < 0.01 µM | > 10 µM
COc1ccc(Nc2ccc(C(=O)c3c[nH]c4ncnc(NC5CCCCC5)c34)c(F)n2)cn1 [Compound P-4082, [4-(cyclohexylamino)-7H-pyrrolo[2,3-d]pyrimidin-5-yl]-[2-fluoro-6-[(6-methoxy-3-pyridyl)amino]-3-pyridyl]methanone] | < 0.01 µM | > 10 µM
COc1ccc(Nc2ccc(C(=O)c3c[nH]c4ncnc(NCC(F)(F)F)c34)c(F)n2)cn1 [Compound P-4084, [2-fluoro-6-[(6-methoxy-3-pyridyl)amino]-3-pyridyl]-[4-(2,2,2-trifluoroethylamino)-7H-pyrrolo[2,3-d]pyrimidin-5-yl]methanone] | < 0.01 µM | > 10 µM
O=C(c1ccc(NC2CCC(F)(F)CC2)nc1)c1c[nH]c2ncnc(NCC(F)(F)F)c12 [Compound P-4087, [6-[(4,4-difluorocyclohexyl)amino]-3-pyridyl]-[4-(2,2,2-trifluoroethylamino)-7H-pyrrolo[2,3-d]pyrimidin-5-yl]methanone] | < 0.01 µM | > 10 µM
O=C(c1ccc(NC2CCC(F)(F)CC2)nc1)c1c[nH]c2ncnc(NC3CC3)c12 [Compound P-4088, [4-(cyclopropylamino)-7H-pyrrolo[2,3-d]pyrimidin-5-yl]-[6-[(4,4-difluorocyclohexyl)amino]-3-pyridyl]methanone] | < 0.01 µM | > 10 µM
CNc1ncnc2[nH]cc(C(=O)c3ccc(NC4CCC(F)(F)CC4)nc3)c12 [Compound P-4089, [6-[(4,4-difluorocyclohexyl)amino]-3-pyridyl]-[4-(methylamino)-7H-pyrrolo[2,3-d]pyrimidin-5-yl]methanone] | < 0.01 µM | > 10 µM
